Results from patent publication US20230112800A1 (priority 2021, published 2023).
Where two headings read alike, the source gives them in different places.

Columns and labels:
[1] = CD-1 mice, 500 mg/kg suspended in 0.5% Methocel A4M
COVID-19 = conditions: in-vitro isolate COVID-19, Vero E6 cells; cited from earlier work
SARS-CoV = conditions: Vero cells infected by SARS-CoV (2002 pandemic); cited from earlier work
[2] = rats, niclosamide dose of 10 mg/kg by oral gavage, n = 5

Molecule `O=C(Nc1ccc([N+](=O)[O-])cc1Cl)c1cc(Cl)ccc1O` [Crystalline Nic] has an AUC0-last [1] of 1454.6 ng·h/mL, a Cmax [1] of 661.7 ng/mL and a Tmax [1] of 30 min.
For `CCN(CC)CCCC(C)Nc1ccnc2cc(Cl)ccc12` (stereo not shown) [chloroquine], the IC50 (COVID-19) is listed as 1130 nM and the IC50 (SARS-CoV) is listed as 4400 nM.
In the case of `O=C(Nc1ccc([N+](=O)[O-])cc1Cl)c1cc(Cl)ccc1O`, the AUCInf [2] is reported as 188 (84) h*ng/mL, the AUC_%Extrap_obs [2] is reported as 8.4 (7.0) % and the AUClast [2] is reported as 168 (64) h*ng/mL. For the same molecule, the AUClast/D [2] was 16.8 (6.4) h*mg/mL, the Cmax [2] was 48.3 (20.6) ng/mL and the MRTInf_obs [2] was 3.56 (0.70) h. The T1/2 [2] was 1.00 (0.30) h and the Tmax [2] was 3.60 (0.89) h.
